One compound from patent publication US7727740B1, “Methods for determining whether a chemical agent modulates enzymatic activity of an L-2-hydroxy acid oxidase” (Merck Sharp & Dohme Corp., priority 2005, dated 2010) can be followed below.

Common to all, as to experiment: Km determination of hydroxy acid oxidase activity (DCIP-coupled)
Holding throughout (format): biochemical

One assay addresses T1, rat Hao2 (Rattus norvegicus, UniProt Q07523).
T1 sequence (Q07523 1-353): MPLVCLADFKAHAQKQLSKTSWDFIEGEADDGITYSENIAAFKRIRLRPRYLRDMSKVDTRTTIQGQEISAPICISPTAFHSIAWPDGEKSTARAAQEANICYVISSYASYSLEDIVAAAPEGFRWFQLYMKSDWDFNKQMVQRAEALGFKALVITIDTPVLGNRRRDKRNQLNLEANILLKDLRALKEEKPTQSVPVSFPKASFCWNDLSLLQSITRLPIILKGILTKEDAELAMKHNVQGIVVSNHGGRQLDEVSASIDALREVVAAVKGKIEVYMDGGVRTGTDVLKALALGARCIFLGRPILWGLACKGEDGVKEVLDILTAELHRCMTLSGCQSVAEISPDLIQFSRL
To be noted: rat Hao2 enzyme activity against the substrate; FIG. 1B. The procedure: (§1) The hydroxyl acid oxidase activity of the Hao enzymes was assayed for oxidation of the enzyme substrate 2-hydroxyoctanoate by monitoring the coupled reduction of 2,6-dichloroindophenol (DCIP) at 605 nm.
(§2) In order to determine the Km of the enzyme for a given substrate, 20 μl/well of various concentrations of the substrate 2-hydroxyoctanoate were diluted in the assay buffer (100 mM Kpi, 1 mM EDTA and 0.1% BSA) and 175 μl/well of 50 μM 2-6-dichloroindophenol (DCIP) diluted in the same assay buffer was added to a 96-well plate. The reaction was started by the addition of 5 μl/well of the Hao enzyme, and the change in A605 at room temperature (18° C.) was measured over time. An extinction coefficient of […] for DCIP at 605 nm may be used for all calculations. One unit of activity may be defined as the reduction of 1 μmol of DCIP in 1 min (see Jones, J. M., et al., J. Biol. Chem. 275:12590-12597, 2000).

The target in the next assay is T2, mouse Hao3 (Mus musculus, UniProt Q9NYQ2, S203T).
T2 construct: made in house; host or cells: E. coli BL21-codonplus-RIPL
T2 sequence (Q9NYQ2 1-353 S203T): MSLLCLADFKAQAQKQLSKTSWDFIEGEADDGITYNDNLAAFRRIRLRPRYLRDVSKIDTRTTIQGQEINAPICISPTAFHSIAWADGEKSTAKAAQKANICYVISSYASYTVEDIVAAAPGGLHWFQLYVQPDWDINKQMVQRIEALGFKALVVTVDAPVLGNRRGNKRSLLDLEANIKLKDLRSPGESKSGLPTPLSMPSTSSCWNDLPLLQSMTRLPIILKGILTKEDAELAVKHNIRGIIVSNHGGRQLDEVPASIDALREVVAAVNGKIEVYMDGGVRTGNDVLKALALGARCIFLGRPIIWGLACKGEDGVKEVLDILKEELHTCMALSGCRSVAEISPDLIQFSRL
To be noted: mouse Hao3 enzyme activity against the substrate; FIG. 1C. Here is the method: as §1, §2

The next assay concerns the target T3, human Hao2 (Homo sapiens, UniProt Q9NYQ3).
T3 construct: made in house; host or cells: E. coli BL21-codonplus-RIPL
T3 sequence (Q9NYQ3 1-351): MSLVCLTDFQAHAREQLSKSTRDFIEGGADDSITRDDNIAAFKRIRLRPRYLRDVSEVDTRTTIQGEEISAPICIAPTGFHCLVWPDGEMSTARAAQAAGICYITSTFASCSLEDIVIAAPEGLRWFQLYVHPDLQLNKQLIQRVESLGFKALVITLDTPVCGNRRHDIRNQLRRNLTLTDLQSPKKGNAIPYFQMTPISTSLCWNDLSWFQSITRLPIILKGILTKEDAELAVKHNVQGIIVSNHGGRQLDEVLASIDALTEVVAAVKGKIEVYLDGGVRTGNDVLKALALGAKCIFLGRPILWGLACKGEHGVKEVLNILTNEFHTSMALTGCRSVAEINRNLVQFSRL
To be noted: human Hao2 enzyme activity against the substrate; FIG. 1A. Here is the method:
as §1, §2

With `CCCCCCC(O)C(=O)O` (stereo not drawn) [2-hydroxyoctanoate], the Km at rat Hao2 was 43 µM; at mouse Hao3, 76 µM; at human Hao2 it was 735 µM.

The Km is the substrate concentration at which the rate is half of its maximum.
